Laboratory results reported in US11332490B1, “Compounds and methods for treating osteoarthritis” (Academia Sinica, priority 2021, dated 2022).
Entries after “also recorded” stand apart in the source; their conditions may differ. Each block holds one molecule with its values, some of them ahead of it.

Legend:
[1] = system: NCCCCCO[C@@H]1OC(C(=O)O)C(O[C@H]2OC(COS(=O)(=O)O)[C@@H](O[C@@H]3OC(C(=O)O)C(O)[C@@H](O)C3OS(=O)(=O)O)[C@H](O)C2NS(=O)(=O)O)[C@@H](O)C1OS(=O)(=O)O; test: purified protein, by the assay type; conditions: other: released sulfate at different substrate concentrations; pH 7.4; 37.0 °C
Procedure: (§1) HPLC assay. […] Release of the sulfate ion from the substrate was quantified via HPLC. Each sample (5 μL) was injected to AS9HC anion-exchange column (Dionex), and the sulfate ion was eluted by 9 mM Na2CO3 then analyzed by a conductivity detector (PROD, AERS500, 4 mm, Thermal) with reagent-free controller (PROD, RFC-10) and compared with a standard curve with Na2SO4 (Merck) from 0 to 500 μM.

Sulf-1 [2] = molecular target: T1, Sulf-1 (Homo sapiens, UniProt Q8IWU6); test: Sulf-1 inhibition assay (4-MU released from 4-MUS)
Source text: Sulf-1 inhibition assay. […] The data obtained were fitted to the Michaelis-Menten equation using the GraphPad to determine the enzyme inhibition parameters.

Sulf-1 [3] = molecular target: T1, Sulf-1; test: Competition assay with 4-MUS substrate (fluorogenic); format: biochemical; design: made in house; conditions: for EC50: competition with 4-MUS for Sulf-1
Procedure: Competition assay with 4-MUS substrate. […] A control mixture without the competing substrate was defined as 100% fluorescent intensity, and the sample with substrate was determined as percentage of fluorescent intensity: (Fluorescent intensity of substrate sample)/(Fluorescent intensity of control sample).
HS oligosaccharides of Example 1.2 were used as competing substrates in the presence of 4-MUS for the identification of Sulf-1 substrate. Compounds 18-20 as well as the commercially available heparin 3000 were independently assessed for their competing effect on 4-MUS cleavage by Sulf-1 to yield the fluorescent 4-methylumbelliferone (4-MU) (FIG. 1, (A)).

Sulf-1 [4] = molecular target: T1, Sulf-1; test: HPLC assay of sulfate ion release from the substrate by Sulf-1; conditions: substrate 480 μM, treated with human Sulf-1, HPLC
Procedure: as §1

human Sulf-1d417-726 = molecular target: T2, human Sulf-1d417-726 (Homo sapiens, UniProt Q8IWU6, DEL417-726); test: Determination of dissociation constant (KD) using surface plasmon resonance; format: binding; conditions: compound immobilized on CM5 sensor chip, 1:1 Langmuir model
T2 construct: made in house
Procedure: Determination of dissociation constant (KD) using surface plasmon resonance. Compound 46 was immobilized on the surface of a Biacore sensor chip (GE Healthcare) according to the manufacturer's guidelines using Biacore T200 system. The kinetic analysis study was performed at different concentrations of hSulf1d417-726 protein upon serial dilution to 250, 125, 63, 31 and 15 nM in running buffer [20 mM NaOAc (pH 5.0), 150 mM NaCl, and 0.05% Tween 20] and injected on to the chip surface with a flow rate of 25 μL/min at 25° C. In each run, the chip sensor surface was regenerated by injecting 4 M NaCl. The titration curves fit well to a 1:1 Langmuir binding model for calculations of equilibrium constants.
With highest inhibitory activity, the binding affinity of the inhibitor 46 with human Sulf-1 was further measured by surface plasmon resonance (SPR). The hydrophilic domain-deleted mutant of Sulf-1, namely human Sulf-1d417-726, lacking two furin-type proteinase cleavage sites responsible for forming the disulfide-bonded heterodimers of 75- and 50-kDa subunits with retained enzyme activity was constructed according to the literature report. Compound 46 was immobilized on the CM5 sensor chip, and aliquots of human Sulf-1d417-726 at gradient concentrations were applied onto the chip.

Molecule: human Sulf-1 (Homo sapiens)
Km [1]: 25.8 µM

IC50 (Sulf-1 [2]): 29600 nM
Molecule: NCCCCCO[C@@H]1O[C@@H](C(=O)O)[C@@H](O[C@H]2O[C@H](COS(N)(=O)=O)[C@@H](O[C@@H]3O[C@@H](C(=O)O)[C@@H](O[C@H]4O[C@H](COS(N)(=O)=O)[C@@H](O)[C@H](O)[C@H]4NS(=O)(=O)O)[C@H](O)[C@H]3OS(=O)(=O)O)[C@H](O)[C@H]2NS(=O)(=O)O)[C@H](O)[C@H]1OS(=O)(=O)O [Compound 47]

EC50 (Sulf-1 [3]): 87800 nM
sulfate concentration upon hydrolysis by Sulf-1 (Sulf-1 [4]): 46.2 µM
Molecule: NCCCCCO[C@@H]1O[C@@H](C(=O)O)[C@@H](O[C@H]2O[C@H](COS(=O)(=O)O)[C@@H](O[C@@H]3O[C@@H](C(=O)O)[C@@H](O[C@H]4O[C@H](COS(=O)(=O)O)[C@@H](O)[C@H](O)[C@H]4NS(=O)(=O)O)[C@H](O)[C@H]3OS(=O)(=O)O)[C@H](O)[C@H]2NS(=O)(=O)O)[C@H](O)[C@H]1OS(=O)(=O)O [Compound 19]
competing effect on 4-MUS cleavage by Sulf-1 (in words) (Sulf-1 [3]; competitor 320 μM (0.32 mM), 4-MUS 4.35 mM): strongly compete with 4-MUS; also recorded: good binder

EC50 (Sulf-1 [3]): 3800 nM
Molecule: NCCCCCO[C@@H]1OC(C(=O)O)C(O[C@H]2OC(COS(=O)(=O)O)[C@@H](O[C@@H]3OC(C(=O)O)C(O)[C@@H](O)C3OS(=O)(=O)O)[C@H](O)C2NS(=O)(=O)O)[C@@H](O)C1OS(=O)(=O)O (stereo partly drawn) [Compound 36]

IC50 (Sulf-1 [2]): 530 nM
Ki (Sulf-1 [2]): 360 nM
Kd (human Sulf-1d417-726): 12 nM
Molecule: NCCCCCO[C@@H]1O[C@@H](C(=O)O)[C@@H](O[C@H]2O[C@H](COS(N)(=O)=O)[C@@H](O[C@@H]3O[C@@H](C(=O)O)[C@@H](O)[C@H](O)[C@H]3OS(=O)(=O)O)[C@H](O)[C@H]2NS(=O)(=O)O)[C@H](O)[C@H]1OS(=O)(=O)O [Compound 46]

inhibition at 700 µM (Sulf-1 [2]; read-out: Sulf-1 activity inhibited): 20%
Molecule: NCCCCCO[C@@H]1OC(C(=O)O)C(O[C@H]2OC(COS(N)(=O)=O)[C@@H](O)C(O)C2NS(=O)(=O)O)[C@@H](O)C1OS(=O)(=O)O (stereo partly drawn) [Compound 45]

fluorescence intensity (4-MUS hydrolysis, % of control) (Sulf-1 [3]; competitor 320 μM, 4-MUS 4.35 mM, 4-MUS with Sulf-1 in pure water = 100%): 94.5%
sulfate concentration upon hydrolysis by Sulf-1 (Sulf-1 [4]): 5.9 µM
Molecule: NCCCCCO[C@@H]1OC(C(=O)O)C(O[C@@H]2OC(COS(=O)(=O)O)[C@@H](O)C(O)C2NS(=O)(=O)O)[C@@H](O)C1OS(=O)(=O)O (stereo partly drawn) [Compound 18]
